For 3 compounds, pest or weed control results are on record in patent US4335249A, “Herbicidal diphenyl ethers, sulfides, sulfoxides and sulfones” (Rohm and Haas Company, priority 1976, dated 1982).

Holding throughout (assay type): in vivo
In assay [1] the test system is morningglory (Ipomoca spp.). Kind of assay: Preemergence herbicidal activity, morningglory. Particulars: Ipomoea, pre-emergence, 336 h, 2 lb/A. The gist of the method: (§1)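 Step one: plant crop and weed seeds in soil flats. Step two: spray the acetone-dissolved, water-diluted compound (carrier 50 gal/A, dose in lb/A) immediately for preemergence, or after two weeks' growth for postemergence. Step three: about two weeks on, rate phytotoxicity as percent killed.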

The test system of assay [2] is cocklebur (Xanthium pensylvanicum). Briefly: Postemergence herbicidal activity, cocklebur. Particulars: Xanthium strumarium, post-emergence, 336 h, 2 lb/A. The gist of the method:
as §1

Assay [3] relates to marigold (Tagetes spp.). Briefly: Preemergence herbicidal activity, marigold. Particulars: pre-emergence, 336 h, 2 lb/A. The gist of the method:
as §1

Assay [4] relates to morningglory (Ipomoca spp.). Briefly: Postemergence herbicidal activity, morningglory. Particulars: Ipomoea, post-emergence, 336 h, 2 lb/A. A digest of the protocol: as §1
Assay [5] deals with marigold (Tagetes spp.). Kind of assay: Postemergence herbicidal activity, marigold. Particulars: post-emergence, 336 h, 2 lb/A. The gist of the method: as §1
The subject of assay [6] is wild oats (Avena fatua). Briefly: Postemergence herbicidal activity, wild oats. The note with it: Avena fatua, post-emergence, 336 h, Post, 2 lb/A; read-out: % control, Wild oat. A digest of the protocol:
as §1

Assay [7] relates to velvetleaf (Abutilon theophrasti). Kind of assay: Postemergence herbicidal activity, velvetleaf. Particulars: Abutilon theophrasti, post-emergence, 336 h, 2 lb/A. A digest of the protocol: (§2)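 Control of the weed species is the read-out, following spray application at a given rate in lb/A. Flats of seeded soil received treatment either directly upon planting or, for postemergence, two weeks after seedlings emerged. Spray carrier was aqueous acetone at 50 gallons per acre equivalent.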

In assay [8] the test system is tomato (Lycopersicon esculentum). Briefly: Postemergence herbicidal activity, tomato. Particulars: Solanum lycopersicum, post-emergence, 336 h, Post, 2 lb/A. A digest of the protocol: as §1
In assay [9] the test system is wild oats (Avena fatua). Briefly: Preemergence herbicidal activity, wild oats. The note with it: Avena fatua, pre-emergence, 336 h, Pre, 2 lb/A; read-out: % control, Wild oat. The gist of the method: as §1
Assay [10] concerns yellow nutsedge (Cyperus esculentus). Kind of assay: Preemergence herbicidal activity, yellow nutsedge. The note with it: Cyperus, pre-emergence, 336 h, 2 lb/A. A digest of the protocol: as §1
In assay [11] the test system is cocklebur (Xanthium pensylvanicum). Kind of assay: Preemergence herbicidal activity, cocklebur. The note with it: Xanthium strumarium, pre-emergence, 336 h, 2 lb/A. A digest of the protocol: as §1
The test system of assay [12] is downybrome (Bromus tectorum). Kind of assay: Preemergence herbicidal activity, downybrome. The note with it: Bromus tectorum, pre-emergence, 336 h, Pre, 2 lb/A. A digest of the protocol: as §1
Assay [13] concerns barnyardgrass (Echinochloa crusgalli). Briefly: Preemergence herbicidal activity, barnyardgrass. Particulars: Echinochloa crus-galli, pre-emergence, 336 h; Pre, 2 lb/A. A digest of the protocol: as §2
For assay [14], the system named is foxtail (Setaria spp.). Kind of assay: Postemergence herbicidal activity, foxtail. The note with it: Setaria, post-emergence, 336 h, Post, 2 lb/A. The gist of the method:
as §1

In assay [15] the test system is velvetleaf (Abutilon theophrasti). Kind of assay: Preemergence herbicidal activity, velvetleaf. The note with it: Abutilon theophrasti, pre-emergence, 336 h; Pre, 2 lb/A. A digest of the protocol: as §1
Assay [16] concerns foxtail (Setaria spp.). Briefly: Preemergence herbicidal activity, foxtail. Particulars: Setaria, pre-emergence, 336 h; Pre, 2 lb/A. A digest of the protocol:
as §1

The test system of assay [17] is barnyardgrass (Echinochloa crusgalli). Kind of assay: Postemergence herbicidal activity, barnyardgrass. Particulars: Echinochloa crus-galli, post-emergence, 336 h; Post, 2 lb/A. A digest of the protocol: as §2
Assay [18] deals with downybrome (Bromus tectorum). Kind of assay: Postemergence herbicidal activity, downybrome. The note with it: Bromus tectorum, post-emergence, 336 h, Post, 2 lb/A. The gist of the method: as §1
Assay [19] concerns yellow nutsedge (Cyperus esculentus). Kind of assay: Postemergence herbicidal activity, yellow nutsedge. Particulars: Cyperus, post-emergence, 336 h, 2 lb/A. The gist of the method: as §1
Assay [20] relates to tomato (Lycopersicon esculentum). Briefly: Preemergence herbicidal activity, tomato. Particulars: Solanum lycopersicum, pre-emergence, 336 h; Pre, 2 lb/A. A digest of the protocol: as §1

With `CCOC(=O)C(CC)Oc1ccc(Oc2ccc(C(F)(F)F)cc2Cl)cc1` (stereo not drawn) [Example 20], the pest or weed control at 2241.7 g/ha in [1] came out at 0%; in assay [2], 0%; in assay [3], 0%; in assay [4], 0%; in [5] it was 0%; in [6] it was 100%. Moreover, the pest or weed control at 2241.7 g/ha stood at 50% in assay [7]; 30% in [8]; 40% in assay [9]; 0% in [10]; 0% in assay [11]; 90% in [12]. For the same compound, the pest or weed control at 2241.7 g/ha was 99% in assay [13]; 100% in assay [14]; 0% in assay [15]; 100% in [16]; 100% in [17]; 30% in [18]. Moreover, the pest or weed control at 2241.7 g/ha in assay [19] amounted to 20%; in [20], 0%.
For the compound `CCNC(=O)C(C)Oc1ccc(Oc2ccc(C(F)(F)F)cc2Cl)cc1` (stereo not drawn) [Example 21], the pest or weed control at 2241.7 g/ha in assay [1] is 0%; in assay [2], 0%; in [3], 0%; in assay [4], 0%; in assay [5], 0%; in assay [6], 99%. For the same compound, the pest or weed control at 2241.7 g/ha worked out at 0% in [7]; 0% in [8]; 40% in assay [9]; 0% in assay [10]; 0% in assay [11]; 90% in assay [12]. The pest or weed control at 2241.7 g/ha in assay [13] amounted to 100%; in assay [14], 100%; in assay [15] it was 0%; in [16], 100%; in [17], 100%; in [18], 30%. Moreover, the pest or weed control at 2241.7 g/ha in assay [19] and in assay [20] was 0% throughout.
For the compound `CC(C)OC(=O)C(C)Oc1ccc(Oc2ccc(C(F)(F)F)cc2Cl)cc1` (stereo not drawn) [Example 22], the pest or weed control at 2241.7 g/ha was 0% in assay [1]; 30% in assay [2]; 0% in [3]; 20% in assay [4]; 30% in assay [5]; 100% in assay [6]. Further, the pest or weed control at 2241.7 g/ha worked out at 40% in assay [7]; 99% in assay [8]; 60% in assay [9]; 0% in [10]; 0% in [11]; 95% in [12]. Moreover, the pest or weed control at 2241.7 g/ha in assay [13] was 100%; in assay [14], 100%; in [15] it was 0%; in [16] it was 100%; in assay [17] it was 100%; in assay [18], 99%. Besides, the pest or weed control at 2241.7 g/ha in assay [19] and in [20] was 0% in each case.
